PubChem BioAssay AID1963963 (Molecular Pharmacology Branch, DTP, NCI, 2024)

System: 958667-338-R-J2-PDC tumor spheroids viability
Test: Anticancer human tumor 958667-338-R-J2-PDC patient-derived colon adenocarcinoma cell line growth inhibition [PI3K]
Conditions: spheroids with HUVEC and MSC; for IC50: curve of first compound; for viability, T/C: stronger effect = lower value
Summary of the method: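 Three cell types, namely tumor cells, endothelial cells and mesenchymal stem cells, formed each spheroid. Combinations with four PI3K inhibitors were screened at clinically achievable concentrations decreasing by half-log, and spheroid viability was recorded.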

[1] = second compound 0.00316 µM, first compound 0.0316 µM
[2] = second compound 0.00316 µM, first compound 0.1 µM
[3] = second compound 0.00316 µM, first compound 0.316 µM
[4] = second compound 0.00316 µM, first compound 1 µM
[5] = second compound 0.00316 µM, first compound 3.16 µM
[6] = second compound 0.00316 µM, first compound 10 µM
[7] = second compound 0.01 µM, first compound 0.0316 µM
[8] = second compound 0.01 µM, first compound 0.1 µM
[9] = second compound 0.01 µM, first compound 0.316 µM
[10] = second compound 0.01 µM, first compound 1 µM
[11] = second compound 0.01 µM, first compound 3.16 µM
[12] = second compound 0.01 µM, first compound 10 µM
[13] = second compound 0.0316 µM, first compound 0.0316 µM
[14] = second compound 0.0316 µM, first compound 0.1 µM
[15] = second compound 0.0316 µM, first compound 0.316 µM
[16] = second compound 0.0316 µM, first compound 1 µM
[17] = second compound 0.0316 µM, first compound 3.16 µM
[18] = second compound 0.0316 µM, first compound 10 µM
[19] = second compound 0.1 µM, first compound 0.0316 µM
[20] = second compound 0.1 µM, first compound 0.1 µM
[21] = second compound 0.1 µM, first compound 0.316 µM
[22] = second compound 0.1 µM, first compound 1 µM
[23] = second compound 0.1 µM, first compound 3.16 µM
[24] = second compound 0.1 µM, first compound 10 µM
[25] = second compound 0.316 µM, first compound 0.0316 µM
[26] = second compound 0.316 µM, first compound 0.1 µM
[27] = second compound 0.316 µM, first compound 0.316 µM
[28] = second compound 0.316 µM, first compound 1 µM
[29] = second compound 0.316 µM, first compound 3.16 µM
[30] = second compound 0.316 µM, first compound 10 µM
[31] = second compound 1 µM, first compound 0.0316 µM
[32] = second compound 1 µM, first compound 0.1 µM
[33] = second compound 1 µM, first compound 0.316 µM
[34] = second compound 1 µM, first compound 1 µM
[35] = second compound 1 µM, first compound 3.16 µM
[36] = second compound 1 µM, first compound 10 µM
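Also: spheroids exposed to compounds for seven days before readout.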

C#Cc1c(F)ccc2cc(O)cc(-c3ncc4c(N5CC6CCC(C5)N6)nc(OCC56CCCN5CC(F)C6)nc4c3F)c12 (stereo unspecified) + COc1c(OCCCN2CCOCC2)ccc2c3n(c(=NC(=O)c4cnc(N)nc4)nc12)CCN3 was tested, and the IC50 (second compound 0.00316 µM) was greater than 10 µM, the IC50 (second compound 0.01 µM) was greater than 10 µM and the IC50 (second compound 0.0316 µM) was 6.5 µM. The IC50 (second compound 0.1 µM) was 1.09 µM, the IC50 (second compound 0.316 µM) was less than 0.0316 µM and the IC50 (second compound 1 µM) was less than 0.0316 µM. It also gave a viability, T/C [1] of 112%, a viability, T/C [2] of 107% and a viability, T/C [3] of 83.9%. The viability, T/C [4] was 108%, the viability, T/C [5] was 86.9% and the viability, T/C [6] was 74%. It also gave a viability, T/C [7] of 93.4%, a viability, T/C [8] of 86.9% and a viability, T/C [9] of 109%. The viability, T/C [10] was 73.3%, the viability, T/C [11] was 68.7% and the viability, T/C [12] was 56.7%. It also gave a viability, T/C [13] of 70.8%, a viability, T/C [14] of 86.9% and a viability, T/C [15] of 73.2%. It also gave a viability, T/C [16] of 70.4%, a viability, T/C [17] of 62.1% and a viability, T/C [18] of 42.9%. The viability, T/C [19] was 71.7%, the viability, T/C [20] was 63.4% and the viability, T/C [21] was 54.6%. For the same molecule, the viability, T/C [22] was 51.6%, the viability, T/C [23] was 46.7% and the viability, T/C [24] was 28%. It also gave a viability, T/C [25] of 35.1%, a viability, T/C [26] of 41.2% and a viability, T/C [27] of 35.8%. It also gave a viability, T/C [28] of 32.7%, a viability, T/C [29] of 20.4% and a viability, T/C [30] of 10%. For the same molecule, the viability, T/C [31] was 14.1%, the viability, T/C [32] was 18.1% and the viability, T/C [33] was 24.2%. It also gave a viability, T/C [34] of 15.9%, a viability, T/C [35] of 8.98% and a viability, T/C [36] of 1.67%.
C=CC(=O)N1CCN(c2nc(=O)n(-c3c(C)ccnc3C(C)C)c3nc(-c4c(O)cccc4F)c(F)cc23)C(C)C1 (stereo unspecified) + COc1c(OCCCN2CCOCC2)ccc2c3n(c(=NC(=O)c4cnc(N)nc4)nc12)CCN3 gave an IC50 (second compound 0.00316 µM) greater than 10 µM, an IC50 (second compound 0.01 µM) greater than 10 µM and an IC50 (second compound 0.0316 µM) greater than 10 µM. It also gave an IC50 (second compound 0.1 µM) greater than 10 µM, an IC50 (second compound 0.316 µM) of less than 0.0316 µM and an IC50 (second compound 1 µM) of less than 0.0316 µM. For the same molecule, the viability, T/C [1] was 97.1%, the viability, T/C [2] was 97.6% and the viability, T/C [3] was 88.8%. For the same molecule, the viability, T/C [4] was 117%, the viability, T/C [5] was 103% and the viability, T/C [6] was 121%. It also gave a viability, T/C [7] of 103%, a viability, T/C [8] of 103% and a viability, T/C [9] of 87%. The viability, T/C [10] was 92.6%, the viability, T/C [11] was 107% and the viability, T/C [12] was 94%. It also gave a viability, T/C [13] of 82.1%, a viability, T/C [14] of 83% and a viability, T/C [15] of 71.8%. It also gave a viability, T/C [16] of 72.4%, a viability, T/C [17] of 78.2% and a viability, T/C [18] of 69.9%. For the same molecule, the viability, T/C [19] was 61%, the viability, T/C [20] was 72.7% and the viability, T/C [21] was 52.9%. It also gave a viability, T/C [22] of 62.6%, a viability, T/C [23] of 72.4% and a viability, T/C [24] of 64.2%. It also gave a viability, T/C [25] of 36.3%, a viability, T/C [26] of 36% and a viability, T/C [27] of 44.4%. For the same molecule, the viability, T/C [28] was 42%, the viability, T/C [29] was 47.3% and the viability, T/C [30] was 46.1%. For the same molecule, the viability, T/C [31] was 22.6%, the viability, T/C [32] was 23.1% and the viability, T/C [33] was 18.8%. The viability, T/C [34] was 21.2%, the viability, T/C [35] was 25.3% and the viability, T/C [36] was 18.2%.
CC(Cn1ccc(-c2ccc(C#N)c(Cl)c2)n1)NC(=O)c1cc(C(C)O)[nH]n1 (stereo unspecified) + COc1c(OCCCN2CCOCC2)ccc2c3n(c(=NC(=O)c4cnc(N)nc4)nc12)CCN3 gave an IC50 (second compound 0.00316 µM) greater than 10 µM, an IC50 (second compound 0.01 µM) greater than 10 µM and an IC50 (second compound 0.0316 µM) greater than 10 µM. The IC50 (second compound 0.1 µM) was 7.69 µM, the IC50 (second compound 0.316 µM) was less than 0.0316 µM and the IC50 (second compound 1 µM) was less than 0.0316 µM. The viability, T/C [1] was 109%, the viability, T/C [2] was 89.7% and the viability, T/C [3] was 111%. The viability, T/C [4] was 94.9%, the viability, T/C [5] was 97.7% and the viability, T/C [6] was 102%. It also gave a viability, T/C [7] of 83.1%, a viability, T/C [8] of 83.1% and a viability, T/C [9] of 85.2%. For the same molecule, the viability, T/C [10] was 81.1%, the viability, T/C [11] was 104% and the viability, T/C [12] was 80.4%. The viability, T/C [13] was 75.3%, the viability, T/C [14] was 74.6% and the viability, T/C [15] was 62.8%. For the same molecule, the viability, T/C [16] was 72.4%, the viability, T/C [17] was 76.7% and the viability, T/C [18] was 69.9%. The viability, T/C [19] was 49.5%, the viability, T/C [20] was 66.2% and the viability, T/C [21] was 56.2%. It also gave a viability, T/C [22] of 59.2%, a viability, T/C [23] of 58.5% and a viability, T/C [24] of 47.6%. The viability, T/C [25] was 33.6%, the viability, T/C [26] was 40.9% and the viability, T/C [27] was 37%. It also gave a viability, T/C [28] of 39.4%, a viability, T/C [29] of 37.3% and a viability, T/C [30] of 49.2%. It also gave a viability, T/C [31] of 19.5%, a viability, T/C [32] of 18.7% and a viability, T/C [33] of 20.6%. It also gave a viability, T/C [34] of 19.9%, a viability, T/C [35] of 22.5% and a viability, T/C [36] of 14.6%.
